The species named for experiment [1] is Homo sapiens. As to the kind of experiment: Inhibitory activity (treatment time 120 min) against MCF-7 neo cell line. It is filed as functional. As to conditions: MCF7, 2 h.
The species named for experiment [2] is Homo sapiens. As to the kind of experiment: Inhibitory activity (treatment time 120 min) against MCF-7 pi cell line. The experiment is classed as functional. The following applies: MCF7, 2 h.

Broadly, the IC50 is the concentration needed to halve the response being measured. High values mean lower potency, low ones higher potency. With `NC(CCC(=O)NC(CS(=O)(=O)CCOP(=O)(N(CCCl)CCCl)N(CCCl)CCCl)C(=O)NC(C(=O)O)c1ccccc1)C(=O)O` (stereo not given), the results for the IC50 in experiment [1] and in experiment [2] were 39.9 µM and 14.4 µM, respectively.

With `NC(CCC(=O)NC(CS(=O)(=O)CCOC(=O)N(CCCl)CCCl)C(=O)NCC(=O)O)C(=O)O` (stereo not given), the IC50 amounted to 133 µM in experiment [1] and 85.8 µM in experiment [2].

Take `NC(CCC(=O)NC(CS(=O)(=O)CCOP(=O)(N(CCBr)CCBr)N(CCBr)CCBr)C(=O)NC(C(=O)O)c1ccccc1)C(=O)O` (stereo not given): the results for the IC50 in experiment [1] and in experiment [2] were 16.1 µM and 11.4 µM, respectively.

As for `NC(CCC(=O)NC(CS(=O)(=O)C(COP(=O)(N(CCCl)CCCl)N(CCCl)CCCl)c1ccccc1)C(=O)NCC(=O)O)C(=O)O` (stereo not given), the IC50 came out at 21.3 µM in experiment [1] and 13.5 µM in experiment [2].

As to `CCOC(=O)CNC(=O)C(CS(=O)(=O)CCOC(=O)N(CCCl)CCCl)NC(=O)CCC(N)C(=O)OCC` (stereo not given), the IC50 in experiment [1] was 102 µM; in experiment [2], 68.8 µM.

(Values after ChEMBL document CHEMBL1129556, “Design, synthesis, and evaluation of latent alkylating agents activated by glutathione S-transferase” (J Med Chem, 1996).)
